Values quoted from earlier work as cited in patent publication US9682051B2, “Acyclovir and meloxicam combination therapy for functional somatic syndromes” (INNOVATIVE MED CONCEPTS, LLC, priority 2012, dated 2017).

System: fibromyalgia patients
Conditions: valacyclovir alone

## CC(C)[C@H](N)C(=O)OCCOCn1cnc2c(=O)[nH]c(N)nc21 [valacyclovir]
  Outcome of treating fibromyalgia patients: not successful
